Test results from patent US5830910A (priority 1995, dated 1998).
Entries after “also recorded” stand apart in the source; their conditions may differ.

What was measured:
[1] = system: cultured hippocampal neurons; assay: iron (FeSO4) neurotoxicity; type: cell-based, rat; conditions: 100 nM, 1 h preincubation
Text: (§1) Dissociated embryonic rat hippocampal cell cultures were established and maintained. All procedures conformed with the NIH Guide for the Care and Use of Laboratory Animals and were approved by the University of Kentucky Animal Care and Use Committee. Cultures were maintained on a polyethyleneimine-coated substrate in plastic 35-mm dishes or 96 wall plates (for cell survival studies) or glass-bottom 35-mm dishes (for [Ca^2+ ]i imaging studies). The cell density was ^~ 70-100 cells/mm^2. Cells were maintained in Eagle's minimum essential medium supplemented 10% with fetal bovine serum and containing 20 mM sodium pyruvate. […] Aβ25-35 (Bachem, lot ZJ744) and Aβ1-40 (Bachem, lot ZK600) were stored in the lyophilized form, and stocks were prepared immediately before use by dissolving the peptide at a concentration of 1 mM in sterile distilled water. […] Glutamate and colchicine (Sigma) were prepared as 200-500x stocks in saline. Cytochalasins D and E (Sigma) and calcium ionophore 4-bromo-A23187 (Calbiochem) were prepared as 500x stocks in dimethyl sulfoxide. Vitamin E (α-tocopherol; Sigma) was prepared as a 500x stock in ethanol. Nordihydroguaiaretic acid and FeSo4 were prepared as 500x stocks in sterile water.
Neuronal survival was quantified by counting viable neurons in the same microscope fields (10x objective) immediately before experimental treatment and at time points after treatment. In addition, cells were grown in 96-well plates and Alamar blue fluorescence (Alamar Laboratories)was quantified by using a fluorescence plate reader. Alamar Blue is a non-fluorescent substrate that, after reduction by cell metabolites, becomes fluorescent. Usually neurons that died in the time intervals (20-48 h) between examination points were absent. Viability of the remaining neurons was assessed by morphological criteria. Neutrons with intact neurites of uniform diameter and a soma with a smooth, round appearance were considered viable, whereas neurons with fragmented neurites and a vacuolated or swollen soma were considered nonviable. Survival values were expressed as percentages of the initial number of neurons present before experimental treatment. Statistical comparisons were made using ANOVA and Scheffe post-hoc tests for pairwise comparisons.
FIG. 8. Cultures were preincubated 1 h in the presence of 0.5% dimethylsulfoxide (control), 100 nM cytochalasin D, 50 μg/ml vitamin E (VitE), or 2 μM nordihydroguairetic acid (NDGA). Cultures were then exposed for 6 h to the indicated concentrations of FeSO4 and neuronal survival was quantified. Values represent the means and SEM of determinations made in four separate cultures. *P<0.001 compared to value for cultures exposed to 100 μM FeSO4 alone.

[2] = system: actin filaments in cultured hippocampal neurons; assay: phalloidin fluorescence of actin filaments, neurons; type: cell-based, rat
Description: Hippocampal cells were exposed to cytochalasin D and then fixed for 30 min in 4% paraformaldehyde/phosphate-buffered saline. Cell membranes were permeabilized by incubating for 5 min in a solution of 0.2% Triton X-100 in phosphate-buffered saline. Cells were then incubated for 30 min in PBS containing 0.005 U/ml fluorescein-phalloidin (Molecular Probes). Cells were rinsed in water and mounted in Vectashield antifade solution (Vector Laboratories) . Fluorescence images were acquired using a Sarastro 2000 confocal laser scanning microscope with a 60x oil-immersion objective. All images were acquired using identical settings for excitation intensity and detector gain.
FIG. 4. (A) Micrographs are confocal laser scanning microscope images of cultured hippocampal cells stained with fluorescein-labeled phalloidin. Cells were exposed for 3 h to either vehicle (control; left) or 100 nM cytochalasin D (right) prior to staining with phalloidin. The top micrographs show several neurons (arrowheads point to neuronal cell bodies); note reduction in phalloidin fluorescence in cytochalasin-treatedneurons.
(B) Cytochalasin D and glutamate cause a reduction in neuronal phalloidin fluorescence. […] Values represent the mean fluorescence intensity per neuronal cell body (±SEM; n=15-18). […]

[3] = system: cultured hippocampal neurons; assay: calcium ionophore A23187 neurotoxicity; type: cell-based, rat; conditions: 100 nM, 1 h pretreatment
Text: as §1
Neuronal survival was quantified by counting viable neurons in the same microscope fields (10x objective) immediately before experimental treatment and at time points after treatment. In addition, cells were grown in 96-well plates and Alamar blue fluorescence (Alamar Laboratories)was quantified by using a fluorescence plate reader. Alamar Blue is a non-fluorescent substrate that, after reduction by cell metabolites, becomes fluorescent. […] Viability of the remaining neurons was assessed by morphological criteria. […] Survival values were expressed as percentages of the initial number of neurons present before experimental treatment. […]
FIG. 7. Cultures were pretreated for 1 h with 0.2% dimethylsulfoxide (control) or 100 nM cytochalasin D. Calcium ionophore A23187 was then added at the indicated concentrations and neuronal survival was assessed 8 h later. […]

[4] = system: hippocampal region CA3 neurons; assay: kainate lesion paradigm, CA3 neurons; type: in vivo, rat (Sprague-Dawley); conditions: for neurons damaged by kainate: intraventricular
Description: A kainate lesion paradigm was employed in adult rats to determine whether cytochalasin D was also excitoprotective. Twenty-four adult male Sprague-Dawley rats (250-300 g) were divided into the indicated experimental groups (4-5 rats/group). Kainate (0.5 µg/[…]) was injected stereotaxically into region CA1 of the right hippocampus of anesthetized rats. Cytochalasin D (the indicated concentration in 1 μl of saline-1% DMSO) or vehicle was infused into the right lateral ventricle during a 5-10 min period immediately following kainate injection. Rats were killed 48 hr later and perfused transcardially with 4% paraformaldehyde. Brain sections (30 μm) were stained with cresyl violet and stained neurons in three adjacent 40X microscope fields of hippocampal region CA3 were counted (5 sections/rat) . The neuronal counts were performed in sections removed approximately 200-400 μm from the injection site. This method results in highly reproducible, 75-99%, neuronal loss in the CA3 region in over 99% of the rats injected with kainate (calculations based on 302 rats receiving intra-hippocampal kainate). […] Approximately 80% of the neurons were killed by kainate in control animals receiving an intracerebroventricular infusion of saline immediately following kainate administration.
Cresyl violet-stained coronal sections from brains of rats administered kainate alone (left) of kainate plus cytochalasin D (CyD; right). […] Lower micrographs are high magnification of a region of CA3 from the sections shown in the upper panels.
FIG. 3. Counts of viable neurons were made in region CA3 of Sham-operated rats, and rats infused intraventricularly with vehicle or increasing concentration of cytochalasin D […] unilateral kainate injection into region CA1 of the hippocampus. Neuronal survival in the kainate injected hippocampus is expressed as a percentage of neurons in the contralateral hippocampus. Values represent the mean and SEM (4 or 5 rats/group). *p<0.01 compared to value for sham rats. **p<0.01 compared to value for vehicle-infused rats. (ANOVA with Scheffe's post-hoc test).

C=C1[C@@H](C)[C@H]2[C@H](Cc3ccccc3)NC(=O)[C@]23[C@H](OC(C)=O)/C=C/[C@@](C)(O)C(=O)[C@@H](C)C/C=C/[C@H]3[C@@H]1O [Cytochalasin D, cytochalasin D]
effect on neuronal loss induced by iron [1]: not significantly altered
phalloidin staining in neurons ([2]; 100 nM, 1 h): pronounced reduction in phalloidin staining in neurons; also recorded: loss of fluorescence
phalloidin staining in neurons ([2]; 10-1000 nM, 3 h): concentration-dependent reduction in phalloidin staining in neurons
protection against A23187 neurotoxicity [3]: essentially identical to that in control cultures
neurons damaged by kainate ([4]; 0.1 μg): 20%
neurons damaged by kainate ([4]; 1.00 μg): 20%
reduction in neuronal injury to CA3 neurons after kainate ([4]; intraventricular infusion, dose related, 48 hr): highly significant reduction in neuronal injury to CA3 neurons; also recorded: marked reduction in the damage
